# Source: patent US10770169B2, “Method of providing a treatment to a subject based on a dynamic pathway map” (THE REGENTS OF THE UNIVERSITY OF CALIFORNIA, priority 2010, dated 2020)
# Tested on: panel of 55 breast cancer cell lines
# Assay: Cell growth inhibition assay (Cell Titer Glo, 72 h, 9 doses; GI50, TGI, LC50)
# Type: cell-based, human
# Conditions: value is the negative log10 of mol/L
compound,measurement,setting,value
CNC(=O)c1c(F)cccc1Nc1nc(Nc2cc3c(cc2OC)CCN3C(=O)CN(C)C)nc2[nH]ccc12 [GSK1838705A],GI50,"600MPE cell line, censored GI50 values",6.49
same,GI50,"AU565 cell line, censored GI50 values",5.63
same,GI50,"BT20 cell line, censored GI50 values",4.63
same,GI50,"BT474 cell line, censored GI50 values",5.08
same,GI50,"BT483 cell line, censored GI50 values",5.52
same,GI50,"BT549 cell line, censored GI50 values",5.21
same,GI50,"CAMA1 cell line, censored GI50 values",5.05
same,GI50,"HCC38 cell line, censored GI50 values",5.00
same,GI50,"HCC70 cell line, censored GI50 values",5.18
same,GI50,"HCC202 cell line, censored GI50 values",5.11
same,GI50,"HCC1143 cell line, censored GI50 values",5.55
same,GI50,"HCC1187 cell line, censored GI50 values",5.61
same,GI50,"HCC1395 cell line, censored GI50 values",5.28
same,GI50,"HCC1419 cell line, censored GI50 values",5.21
same,GI50,"HCC1428 cell line, censored GI50 values",5.79
same,GI50,"HCC1500 cell line, censored GI50 values",5.02
same,GI50,"HCC1806 cell line, censored GI50 values",4.27
same,GI50,"HCC1937 cell line, censored GI50 values",4.71
same,GI50,"HCC1954 cell line, censored GI50 values",5.08
same,GI50,"HCC2185 cell line, censored GI50 values",5.54
same,GI50,"HCC3153 cell line, censored GI50 values",5.26
same,GI50,"LY2 cell line, censored GI50 values",6.26
same,GI50,"MCF7 cell line, censored GI50 values",5.89
same,GI50,"MDAMB134VI cell line, censored GI50 values",5.06
same,GI50,"MDAMB157 cell line, censored GI50 values",5.05
same,GI50,"MDAMB175VII cell line, censored GI50 values",5.30
same,GI50,"MDAMB231 cell line, censored GI50 values",5.28
same,GI50,"MDAMB361 cell line, censored GI50 values",5.04
same,GI50,"MDAMB415 cell line, censored GI50 values",5.37
same,GI50,"MDAMB436 cell line, censored GI50 values",5.00
same,GI50,"MDAMB453 cell line, censored GI50 values",5.07
same,GI50,"MDAMB468 cell line, censored GI50 values",5.29
same,GI50,"SKBR3 cell line, censored GI50 values",5.16
same,GI50,"SUM149PT cell line, censored GI50 values",5.41
same,GI50,"SUM159PT cell line, censored GI50 values",5.46
same,GI50,"SUM185PE cell line, censored GI50 values",5.48
same,GI50,"SUM225CWN cell line, censored GI50 values",4.89
same,GI50,"SUM1315MO2 cell line, censored GI50 values",5.33
same,GI50,cell line 600MPE,6.49
same,GI50,cell line AU565,5.63
same,GI50,cell line BT20,4.63
COc1ncc(-c2ccc3nccc(-c4ccnnc4)c3c2)cc1NS(=O)(=O)c1ccc(F)cc1F [GSK2126458A],GI50,"cell line 600MPE, censored GI50 values",8.22
same,GI50,cell line 600MPE,8.22
same,GI50,"cell line AU565, censored GI50 values",8.10
same,GI50,cell line AU565,8.10
same,GI50,"cell line BT20, censored GI50 values",7.80
same,GI50,cell line BT20,7.80
same,GI50,"cell line BT474, censored GI50 values",8.36
same,GI50,"cell line BT483, censored GI50 values",8.94
same,GI50,"cell line BT549, censored GI50 values",7.32
same,GI50,"cell line CAMA1, censored GI50 values",6.97
same,GI50,"cell line HCC38, censored GI50 values",7.62
same,GI50,"cell line HCC70, censored GI50 values",8.13
same,GI50,"cell line HCC202, censored GI50 values",9.03
same,GI50,"cell line HCC1143, censored GI50 values",7.43
same,GI50,"cell line HCC1187, censored GI50 values",8.30
same,GI50,"cell line HCC1395, censored GI50 values",7.31
same,GI50,"cell line HCC1419, censored GI50 values",8.75
same,GI50,"cell line HCC1428, censored GI50 values",7.48
same,GI50,"cell line HCC1500, censored GI50 values",7.11
same,GI50,"cell line HCC1806, censored GI50 values",7.54
same,GI50,"cell line HCC1937, censored GI50 values",7.57
same,GI50,"cell line HCC1954, censored GI50 values",7.97
same,GI50,"cell line HCC3153, censored GI50 values",7.36
same,GI50,"cell line LY2, censored GI50 values",7.93
same,GI50,"cell line MCF7, censored GI50 values",8.14
same,GI50,"cell line MDAMB134VI, censored GI50 values",7.95
same,GI50,"cell line MDAMB157, censored GI50 values",6.49
same,GI50,"cell line MDAMB175VII, censored GI50 values",8.29
same,GI50,"cell line MDAMB231, censored GI50 values",5.57
same,GI50,"cell line MDAMB361, censored GI50 values",7.46
same,GI50,"cell line MDAMB436, censored GI50 values",6.75
same,GI50,"cell line MDAMB453, censored GI50 values",8.28
same,GI50,"cell line MDAMB468, censored GI50 values",7.47
same,GI50,"cell line SKBR3, censored GI50 values",8.41
same,GI50,"cell line SUM52PE, censored GI50 values",8.46
same,GI50,"cell line SUM149PT, censored GI50 values",7.64
same,GI50,"cell line SUM159PT, censored GI50 values",7.52
same,GI50,"cell line SUM1315MO2, censored GI50 values",8.02
same,GI50,"cell line T47D, censored GI50 values",8.45
same,GI50,"cell line UACC812, censored GI50 values",8.67
same,GI50,"cell line UACC893, censored GI50 values",8.22
same,GI50,"cell line ZR75B, censored GI50 values",8.31
same,GI50,"cell line ZR751, censored GI50 values",8.07
